Test results taken from patent US20100168125A1, “INDOLIZINES AND AZA-ANALOG DERIVATIVES THEREOF AS CNS ACTIVE COMPOUNDS” (priority 2007, published 2010).
Read-outs that look alike come from different tables or passages of the source.

Tests used:
human D2short receptor = target: T1, human D2short receptor (Homo sapiens, UniProt P14416); experiment: radioligand binding with [^3H]spiperone, D2short; settings: read-out: Ki D2sh
T1 construct: expressed in transfected cells; host or cells: Chinese hamster ovary (CHO) cells, membranes
T1 sequence (P14416 1-414 isoform P14416-2): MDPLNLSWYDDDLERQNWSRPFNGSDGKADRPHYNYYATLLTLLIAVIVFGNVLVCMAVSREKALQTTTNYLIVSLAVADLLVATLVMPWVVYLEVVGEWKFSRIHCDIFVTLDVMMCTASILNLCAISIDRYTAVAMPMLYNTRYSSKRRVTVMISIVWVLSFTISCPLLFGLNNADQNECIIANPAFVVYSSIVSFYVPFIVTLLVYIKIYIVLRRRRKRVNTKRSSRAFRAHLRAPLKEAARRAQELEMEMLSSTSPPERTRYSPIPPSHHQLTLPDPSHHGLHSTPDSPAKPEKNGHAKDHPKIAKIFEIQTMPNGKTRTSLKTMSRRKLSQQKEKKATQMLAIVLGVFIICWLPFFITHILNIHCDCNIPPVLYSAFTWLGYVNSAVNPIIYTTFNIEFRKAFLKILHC
Outline: (§1)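 Membranes from CHO cell lines expressing each human receptor subtype incubated with [^3H]spiperone. Test compounds spanned subnanomolar to micromolar concentrations in competition format.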

5-HT1A receptor = target: T2, 5-HT1A receptor (Sus scrofa, UniProt A0A4X1UTF5); experiment: radioligand binding, porcine cortical membranes, [^3H]8-OH-DPAT and [^3H]WAY 100635
T2 construct: membrane preparations from porcine cortical material; from tissue; host or cells: porcine cerebral cortex membranes
T2 sequence (A0A4X1UTF5 1-422): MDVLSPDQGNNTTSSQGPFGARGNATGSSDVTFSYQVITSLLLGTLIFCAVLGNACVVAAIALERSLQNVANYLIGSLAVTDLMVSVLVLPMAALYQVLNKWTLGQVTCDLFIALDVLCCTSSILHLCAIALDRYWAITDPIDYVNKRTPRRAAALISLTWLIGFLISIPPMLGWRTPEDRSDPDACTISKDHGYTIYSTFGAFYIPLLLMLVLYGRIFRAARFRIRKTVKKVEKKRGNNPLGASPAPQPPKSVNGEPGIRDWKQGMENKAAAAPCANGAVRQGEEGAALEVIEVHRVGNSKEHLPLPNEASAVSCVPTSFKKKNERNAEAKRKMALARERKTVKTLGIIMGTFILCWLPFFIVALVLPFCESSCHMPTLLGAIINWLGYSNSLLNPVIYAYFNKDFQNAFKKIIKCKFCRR

5-HT2 receptor = target: T3, 5-HT2 receptor (Sus scrofa, UniProt P50129); experiment: radioligand binding, porcine cortical membranes, [^3H]ketanserin
T3 construct: membrane preparations from porcine cortical material; from tissue; host or cells: porcine cerebral cortex membranes
T3 sequence (P50129 whole entry): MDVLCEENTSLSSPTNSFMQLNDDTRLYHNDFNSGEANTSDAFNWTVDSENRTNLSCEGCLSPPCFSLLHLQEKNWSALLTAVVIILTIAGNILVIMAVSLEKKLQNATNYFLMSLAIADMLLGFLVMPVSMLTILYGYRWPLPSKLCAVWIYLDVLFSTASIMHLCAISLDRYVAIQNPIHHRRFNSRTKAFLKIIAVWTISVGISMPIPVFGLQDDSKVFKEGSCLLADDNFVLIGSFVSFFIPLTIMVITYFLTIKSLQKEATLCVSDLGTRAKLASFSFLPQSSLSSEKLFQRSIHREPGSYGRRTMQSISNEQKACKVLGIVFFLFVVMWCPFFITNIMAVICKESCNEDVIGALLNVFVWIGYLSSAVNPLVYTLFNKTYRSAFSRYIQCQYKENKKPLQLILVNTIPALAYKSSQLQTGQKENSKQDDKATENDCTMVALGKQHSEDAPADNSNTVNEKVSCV

human D4.4 receptor = target: T4, human D4.4 receptor (Homo sapiens, UniProt P21917); experiment: radioligand binding with [^3H]spiperone, D4.4
T4 construct: expressed in transfected cells; host or cells: Chinese hamster ovary (CHO) cells, membranes
T4 sequence (P21917 1-419): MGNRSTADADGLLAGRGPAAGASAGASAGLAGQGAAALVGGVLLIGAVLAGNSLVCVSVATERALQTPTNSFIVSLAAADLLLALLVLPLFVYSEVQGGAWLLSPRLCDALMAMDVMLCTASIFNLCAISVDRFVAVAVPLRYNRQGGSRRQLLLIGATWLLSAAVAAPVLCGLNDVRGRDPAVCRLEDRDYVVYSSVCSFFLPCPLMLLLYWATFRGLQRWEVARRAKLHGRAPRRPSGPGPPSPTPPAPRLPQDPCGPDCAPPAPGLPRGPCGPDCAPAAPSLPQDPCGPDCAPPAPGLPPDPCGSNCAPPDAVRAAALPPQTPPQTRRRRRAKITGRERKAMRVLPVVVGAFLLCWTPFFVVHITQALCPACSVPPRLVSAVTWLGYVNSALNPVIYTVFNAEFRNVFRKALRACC
Outline: as §1

human D2long receptor = target: T5, human D2long receptor (Homo sapiens, UniProt P14416); experiment: radioligand binding with [^3H]spiperone, D2long; settings: read-out: Ki D2lo
T5 construct: expressed in transfected cells; host or cells: Chinese hamster ovary (CHO) cells, membranes
T5 sequence (P14416 whole entry): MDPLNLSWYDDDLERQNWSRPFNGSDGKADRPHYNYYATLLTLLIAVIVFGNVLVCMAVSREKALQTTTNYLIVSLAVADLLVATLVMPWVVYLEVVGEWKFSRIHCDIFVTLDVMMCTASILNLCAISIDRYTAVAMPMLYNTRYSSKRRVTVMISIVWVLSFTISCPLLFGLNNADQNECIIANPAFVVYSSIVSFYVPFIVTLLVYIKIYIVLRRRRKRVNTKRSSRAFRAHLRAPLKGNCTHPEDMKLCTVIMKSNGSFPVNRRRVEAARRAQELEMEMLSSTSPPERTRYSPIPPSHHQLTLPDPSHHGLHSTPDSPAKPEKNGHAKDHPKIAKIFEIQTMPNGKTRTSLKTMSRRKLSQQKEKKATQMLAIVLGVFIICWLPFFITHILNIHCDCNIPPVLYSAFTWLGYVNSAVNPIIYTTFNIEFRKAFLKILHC
Outline: as §1

human D3 receptor = target: T6, human D3 receptor (Homo sapiens, UniProt P35462); experiment: radioligand binding with [^3H]spiperone, D3
T6 construct: expressed in transfected cells; host or cells: Chinese hamster ovary (CHO) cells, membranes
T6 sequence (P35462 whole entry): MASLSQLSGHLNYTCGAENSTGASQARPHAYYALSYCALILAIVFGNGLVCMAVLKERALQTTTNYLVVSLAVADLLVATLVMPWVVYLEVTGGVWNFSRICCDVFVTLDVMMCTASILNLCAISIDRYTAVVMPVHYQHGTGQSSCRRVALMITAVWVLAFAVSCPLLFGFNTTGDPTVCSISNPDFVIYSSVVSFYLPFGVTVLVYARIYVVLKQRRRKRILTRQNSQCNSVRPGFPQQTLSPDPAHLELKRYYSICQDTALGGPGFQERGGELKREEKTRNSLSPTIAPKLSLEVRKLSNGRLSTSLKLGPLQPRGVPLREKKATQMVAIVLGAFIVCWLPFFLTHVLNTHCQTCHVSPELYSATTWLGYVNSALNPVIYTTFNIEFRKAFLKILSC
Outline: as §1

[1] = target: dopamine D2short receptor (Homo sapiens, UniProt P14416); experiment: [^35S]GTPγS-incorporation assay, intrinsic activity
dopamine D2short receptor, sequence (P14416 1-414 isoform P14416-2): as the sequence (P14416 1-414 isoform P14416-2) above

[2] = [^3H]spiperone, CHO membranes, mean of 2 to 4 experiments
[3] = ether alkylene linker compounds
[4] = porcine cortical membranes, [^3H]ketanserin
[5] = read-out: D2short: [^35S]GTPγS intrinsic activity, % activity of quinpirol
[6] = read-out: D2short: [^35S]GTPγS intrinsic activity

| SMILES | Ki (human D2short receptor; [2]) [nM] | Ki (human D2short receptor; [3]) [nM] | melting point [°C] | Ki (5-HT1A receptor; [3]) [nM] | Ki (5-HT1A receptor; porcine cortical membranes) [nM] | Ki (5-HT2 receptor; [3]) [nM] | Ki (5-HT2 receptor; [4]) [nM] | Ki (human D4.4 receptor; [2]) [nM] | Ki (human D4.4 receptor; [3]) [nM] | Ki (human D2long receptor; [2]) [nM] | Ki (human D2long receptor; [3]) [nM] | Ki (human D3 receptor; [2]) [nM] | Ki (human D3 receptor; [3]) [nM] | Emax [1, 5] [%] | Emax [1, 6] [%] |
| --- | --- | --- | --- | --- | --- | --- | --- | --- | --- | --- | --- | --- | --- | --- | --- |
| Clc1cccc(N2CCN(CCCCOc3cc4ccccn4n3)CC2)c1Cl [Example E1, 2-[4-[4-(2,3-Dichlorophenyl)piperazin-1-yl]butoxy]pyrazolo[1,5-a]pyridine] | < 30 | 10 | 161 | 17 | < 30 | 150 | 30 to 300 | 30 to 300 | 33 | < 30 | 9.4 | < 30 | 3.5 | < 15 | – |
| COC(=O)c1cnn2ccc(OCCCCN3CCN(c4ccccc4OC)CC3)cc12 [Example E40, Methyl 5-[4-[4-(2-methoxyphenyl)piperazin-1-yl]butoxy]pyrazolo[1,5-a]pyridine-3-carboxylate] | < 30 | – | 75 | – | < 30 | – | 30 to 300 | < 30 | – | < 30 | – | < 30 | – | 15 to 40 | – |
| Clc1ccccc1N1CCN(CCCCOc2cccn3nccc23)CC1 [Example E9, 4-[4-[4-(2-Chlorophenyl)piperazin-1-yl]butoxy]pyrazolo[1,5-a]pyridine] | < 30 | – | 88 | – | < 30 | – | 301 to 3000 | < 30 | – | < 30 | – | < 30 | – | – | < 15 |
| COc1ccccc1N1CCN(CCCCOc2cccn3nccc23)CC1 [Example E8, 4-[4-[4-(2-Methoxyphenyl)piperazin-1-yl]butoxy]pyrazolo[1,5-a]pyridine] | < 30 | – | 74 | – | < 30 | – | 301 to 3000 | < 30 | – | < 30 | – | < 30 | – | < 15 | – |
| O=Cc1c(OCCCCN2CCN(c3ccccc3Cl)CC2)nn2ccccc12 [Example E6, 2-[4-[4-(2-Chlorophenyl)piperazin-1-yl]butoxy]pyrazolo[1,5-a]pyridine-3-carbaldehyde] | 30 to 300 | – | 104 | – | < 30 | – | 301 to 3000 | 30 to 300 | – | < 30 | – | < 30 | – | – | 15 to 40 |
| Clc1cccc(N2CCN(CCCCOc3ccn4ncc(I)c4c3)CC2)c1Cl [Example E48, 5-[4-[4-(2,3-Dichlorophenyl)piperazin-1-yl]butoxy]3-iodo-pyrazolo[1,5-a]pyridine] | < 30 | – | 110 | – | 301 to 3000 | – | 301 to 3000 | 30 to 300 | – | 30 to 300 | – | < 30 | – | < 15 | – |
| Clc1cccc(N2CCN(CCCCOc3ccn4nccc4c3)CC2)c1Cl [Example E15, 5-[4-[4-(2,3-Dichlorophenyl)piperazin-1-yl]butoxy]pyrazolo[1,5-a]pyridine] | 30 to 300 | – | 105 | – | 30 to 300 | – | 301 to 3000 | 30 to 300 | – | 30 to 300 | – | < 30 | – | 15 to 40 | – |
| Clc1ccccc1N1CCN(CCCCOc2ccc3ccnn3c2)CC1 [Example E53, 6-[4-[4-(2-Chlorophenyl)piperazin-1-yl]butoxy]pyrazolo[1,5-a]pyridine] | < 30 | – | 86 | – | < 30 | – | 301 to 3000 | < 30 | – | < 30 | – | < 30 | – | < 15 | – |
| ON=Cc1cnn2ccc(OCCCCN3CCN(c4ccccc4Cl)CC3)cc12 [Example E32, (s-trans) 5-[4-[4-(2-Chlorophenyl)piperazin-1-yl]butoxy[pyrazolo[1,5-a]pyridine-3-carbaldehyde oxime] | < 30 | – | 174 | – | < 30 | – | 30 to 300 | < 30 | – | < 30 | – | < 30 | – | 15 to 40 | – |
| COc1ccc(N2CCN(CCCCOc3ccn4nccc4c3)CC2)cc1 [Example E18] | 301 to 3000 | – | 111 | – | 30 to 300 | – | 301 to 3000 | 301 to 3000 | – | > 3000 | – | 30 to 300 | – | < 15 | – |
| O=Cc1cnn2cccc(OCCCCN3CCN(c4cccc(Cl)c4Cl)CC3)c12 [Example E10, 4-[4-[4-(2,3-Dichlorophenyl)piperazin-1-yl]butoxy]pyrazolo[1,5-a]pyridine-3-carbaldehyde] | < 30 | – | 128 | – | 30 to 300 | – | 30 to 300 | 30 to 300 | – | < 30 | – | < 30 | – | – | 15 to 40 |
| Clc1cccc(N2CCN(CCCCOc3cccn4nccc34)CC2)c1Cl [Example E7, 4-[4-[4-(2,3-Dichlorophenyl)piperazin-1-yl]butoxy]pyrazolo[1,5-a]pyridine] | < 30 | – | 91 | – | 30 to 300 | – | 301 to 3000 | < 30 | – | < 30 | – | < 30 | – | < 15 | – |
| Clc1cccc(N2CCN(CCCCOc3cccc4ccnn34)CC2)c1Cl [Example E57, 7-[4-[4-(2,3-Dichlorophenyl)piperazin-1-yl]butoxy]pyrazolo[1,5-a]pyridine] | < 30 | – | 74 | – | 30 to 300 | – | 30 to 300 | 30 to 300 | – | 30 to 300 | – | < 30 | – | 15 to 40 | – |
| Clc1cccc(N2CCN(CCCCOc3ccn4ncc(Cl)c4c3)CC2)c1Cl [Example E45, 3-Chloro-5-[4-[4-(2,3-dichlorophenyl)piperazin-1-yl]butoxy]pyrazolo[1,5-a]pyridine] | 30 to 300 | – | 133 | – | 30 to 300 | – | 301 to 3000 | 30 to 300 | – | 30 to 300 | – | < 30 | – | 15 to 40 | – |
| Clc1cccc(N2CCN(CCCOCc3ccn4nccc4c3)CC2)c1Cl [Example E13, 5-[3-[4-(2,3-Dichlorophenyl)piperazin-1-yl]propoxymethyl]pyrazolo[1,5-a]pyridine] | < 30 | – | 69 | – | 30 to 300 | – | 30 to 300 | 30 to 300 | – | < 30 | – | < 30 | – | – | < 15 |
